Laboratory results from US11180459B2, “Bacterial efflux pump inhibitors” (RUTGERS, THE STATE UNIVERSITY OF NEW JERSEY, priority 2017, dated 2021).
Where a name gives a salt, the structure may show the parent alone.

Key:
[1] = test system: Pseudomonas aeruginosa ATCC 27853; assay: Standard EPI assay: levofloxacin MIC with EPI; assay type: cell-based; settings: levofloxacin as antibiotic, P. aeruginosa ATCC 27853
Procedure: (§1) MIC assays were conducted in accordance with Clinical and Laboratory Standards Institute (CLSI) guidelines for broth microdilution.
(§2) The EPI assay for the purposes of these studies represents a MIC assay in which the MIC of the antibiotic against the bacteria is tested in the presence of an experimental efflux pump inhibitor (EPI). The highest concentration of the EPI present in the assay typically is ½ of the intrinsic MIC of the compound. If the intrinsic MIC of the EPI is greater than 100 μg/mL, the EPI assay was tested with 50 μg/mL. Using serial dilutions of the EPI, its enhancement of antibiotic activity was then evaluated. The relative EPI activity was decided by comparing the MIC of the antibiotic in the presence of the EPI compound with the intrinsic MIC of the antibiotic alone. For the evaluation of the efficacy of an EPI against bacteria that were pre-exposed to an antibiotic, the inoculum of bacteria that used was developed from a bacterial culture isolated as a single colony following exposure at ½ the MIIC of the antibiotic (so as to induce efflux pump expression), was to be used in combination with the EPI.
(§3) In our standard EPI assay, the MIC of the test antibiotic is determined in the absence and presence of sub-inhibitory concentrations of the EPI. Initially, the sub-inhibitory concentration used was ½×MIC of the EPI. […] The MIC of levofloxacin against P. aeruginosa ATCC 27853 in the absence of EPI is 1 μg/mL. […] Similar methodology was employed to examine the synergy with Escherichia coli ATCC 25922 in the presence of varied concentrations of these EPIs using clarithromycin as the antibiotic.

[2] = test system: Escherichia coli ATCC 25922; assay: Standard EPI assay: clarithromycin MIC with EPI; assay type: cell-based; settings: clarithromycin as antibiotic, E. coli ATCC 25922
Procedure: as §1, §2, §3

N#Cc1cccc(-c2ccc3[nH]c(C(=O)NC[C@@H](N)CCCN)nc3c2)c1 [Example 7, (S)-5-(3-cyanophenyl)-N-(2,5-diaminopentyl)-1H-benzo[d]imidazole-2-carboxamide Dihydrochloride]
Enhanced Activity in P. aeruginosa (fold enhancement of antibiotic activity / EPI concentration) ([1]; EPI at 12.5 (μg)): 4×/12.5

NC[C@@H]1CN[C@H](CNC(=O)c2nc3cc(-c4ccc(F)cc4)ccc3[nH]2)C1 [Example 21, N-(((2S,4R)-4-(aminomethyl)pyrrolidin-2-yl)methyl)-5-(4-fluorophenyl)-1H-benzo[d]imidazole-2-carboxamide Dihydrochloride]
Enhanced Activity in E. coli (fold enhancement of antibiotic activity / EPI concentration) ([2]; EPI at 50 (μg)): 256×/50
Enhanced Activity in P. aeruginosa (fold enhancement of antibiotic activity / EPI concentration) ([1]; EPI at 25 (μg)): 8×/25

CC(C)C(N)CC[C@H](N)CNC(=O)c1nc2cc(-c3ccc(F)cc3)ccc2[nH]1 (stereo partly drawn) [Example 16, N-((2S)-2,5-diamino-6-methylheptyl)-5-(4-fluorophenyl)-1H-benzo[d]imidazole-2-carboxamide Dihydrochloride]
Enhanced Activity in E. coli (fold enhancement of antibiotic activity / EPI concentration) ([2]; EPI at 6.25 (μg)): 4×/6.25

NCCC[C@H](N)CNC(=O)Cc1nc2ccc(-c3ccc(F)cc3)cc2[nH]1 [Example 10, (S)—N-(2,5-diaminopentyl)-2-(6-(4-fluorophenyl)-1H-benzo[d]imidazol-2-yl)acetamide Dihydrochloride]
Enhanced Activity in E. coli (fold enhancement of antibiotic activity / EPI concentration) ([2]; EPI at 50 (μg)): 1×/50

Cn1c(C(=O)NC[C@@H](N)CCCN)nc2cc(-c3ccc(F)cc3)ccc21 [Example 5, (S)—N-(2,5-diaminopentyl)-5-(4-fluorophenyl)-1-methyl-1H-benzo[d]imidazole-2-carboxamide Dihydrochloride]
Enhanced Activity in E. coli (fold enhancement of antibiotic activity / EPI concentration) ([2]; EPI at 50 (μg)): 64×/50

NCCC[C@H](N)CNC(=O)c1nc2cc(-c3ccc(F)cc3)c(-c3ccc(F)cc3)cc2[nH]1 [Example 1, (S)—N-(2,5-diaminopentyl)-5,6-bis(4-fluorophenyl)-1H-benzo[d]imidazole-2-carboxamide Dihydrochloride]
Enhanced Activity in E. coli (fold enhancement of antibiotic activity / EPI concentration) ([2]; EPI at 6.25 (μg)): 512×/6.25

Cl.Cl.N=C(N)NCCC[C@H](N)CNC(=O)c1nc2cc(-c3ccc(F)cc3)ccc2[nH]1 [Example 14, (S)-5-((amino(iminio)methyl)amino)-1-(5-(4-fluorophenyl)-1H-benzo[d]imidazole-2-carboxamido) pentan-2-aminium Chloride]
Enhanced Activity in E. coli (fold enhancement of antibiotic activity / EPI concentration) ([2]; EPI at 50 (μg)): 2×/50
Enhanced Activity in P. aeruginosa (fold enhancement of antibiotic activity / EPI concentration) ([1]; EPI at 12.5 (μg)): 4×/12.5

COc1ccc(-c2ccc3[nH]c(C(=O)NC[C@@H](N)CCCN)nc3c2)cc1 [Example 8, (S)—N-(2,5-diaminopentyl)-5-(4-methoxyphenyl)-1H-benzo[d]imidazole-2-carboxamide Dihydrochloride]
Enhanced Activity in E. coli (fold enhancement of antibiotic activity / EPI concentration) ([2]; EPI at 50 (μg)): 2×/50
Enhanced Activity in P. aeruginosa (fold enhancement of antibiotic activity / EPI concentration) ([1]; EPI at 12.5 (μg)): 2×/12.5

Cl.Cl.NCCC[C@H](N)CNC(=O)c1nc2cc(-c3ccc(F)cc3)c(-c3ccc(F)cc3)cc2n1Cc1ccccc1 [Example 31, (S)-1-benzyl-N-(2,5-diaminopentyl)-5,6-bis(4-fluorophenyl)-1H-benzo[d]imidazole-2-carboxamide Hydrogen Chloride Salt]
Enhanced Activity in E. coli (fold enhancement of antibiotic activity / EPI concentration) ([2]; EPI at 6.25 (μg)): 8×/6.25 μg

CC(C)(N)C1CN[C@H](CNC(=O)c2nc3ccc(-c4ccc(F)cc4)cc3[nH]2)C1 (stereo partly drawn) [Example 11, N-(((2S)-4-(2-aminopropan-2-yl)pyrrolidin-2-yl)methyl)-6-(4-fluorophenyl)-1H-benzo[d]imidazole-2-carboxamide Dihydrochloride]
Enhanced Activity in P. aeruginosa (fold enhancement of antibiotic activity / EPI concentration) ([1]; EPI at 12.5 (μg)): 2×/12.5

NCCC[C@H](N)c1nc2cc(-c3ccc(F)cc3)ccc2[nH]1 [Example 9, (S)-1-(5-(4-fluorophenyl)-1H-benzo[d]imidazol-2-yl)butane-1,4-diamine Dihydrochloride]
Enhanced Activity in E. coli (fold enhancement of antibiotic activity / EPI concentration) ([2]; EPI at 50 (μg)): 256×/50
Enhanced Activity in P. aeruginosa (fold enhancement of antibiotic activity / EPI concentration) ([1]; EPI at 25 (μg)): 1×/25

Cl.Cl.Cn1c(C(=O)NC[C@@H](N)CCCN)nc2cc(-c3ccc(F)cc3)c(-c3ccc(F)cc3)cc21 [Example 30, (S)—N-(2,5-diaminopentyl)-5,6-bis(4-fluorophenyl)-1-methyl-1H-benzo[d]imidazole-2-carboxamidehydrogen Chloride Salt]
Enhanced Activity in E. coli (fold enhancement of antibiotic activity / EPI concentration) ([2]; EPI at 6.25 (μg)): 512×/6.25 μg

Cl.Cl.NC[C@H](N)CNC(=O)c1nc2ccc(-c3ccc(F)cc3)cc2[nH]1 [Example 13, (S)-3-(5-(4-fluorophenyl)-1H-benzo[d]imidazole-2-carboxamido) propane-1,2-diaminium Dihydrochloride]
Enhanced Activity in P. aeruginosa (fold enhancement of antibiotic activity / EPI concentration) ([1]; EPI at 25 (μg)): 4×/25

Cl.Cl.NCCC[C@H](N)CNC(=O)c1nc2ccc(-c3ccc(N)cc3)cc2[nH]1 [Example 25, (S)-6-(4-aminophenyl)-N-(2,5-diaminopentyl)-1H-benzo[d]imidazole-2-carboxamide Hydrogen Chloride Salt]
Enhanced Activity in E. coli (fold enhancement of antibiotic activity / EPI concentration) ([2]; EPI at 50 (μg)): 2×/50 μg

NCCC[C@H](N)CNC(=O)c1nc2cc(Br)ccc2[nH]1 [Example 23, (S)-5-bromo-N-(2,5-diaminopentyl)-1H-benzo[d]imidazole-2-carboxamide Hydrogen Chloride Salt]
Enhanced Activity in E. coli (fold enhancement of antibiotic activity / EPI concentration) ([2]; EPI at 50 (μg)): 2×/50 μg

Cl.Cl.NCCC(N)CNC(=O)c1nc2cc(-c3ccc(F)cc3)ccc2[nH]1 (stereo in doubt) [Example 12, (S)-4-(5-(4-fluorophenyl)-1H-benzo[d]imidazole-2-carboxamido) butane-1,3-diaminium Chloride]
Enhanced Activity in E. coli (fold enhancement of antibiotic activity / EPI concentration) ([2]; EPI at 50 (μg)): 8×/50
Enhanced Activity in P. aeruginosa (fold enhancement of antibiotic activity / EPI concentration) ([1]; EPI at 12.5 (μg)): 4×/12.5

NCCC[C@H](N)CNC(=O)c1nc2cc(-c3ccc(F)cc3)ccc2[nH]1 [Example 17, (S)—N-(2,5-diaminopentyl)-5-(4-fluorophenyl)-1H-benzo[d]imidazole-2-carboxamide Dihydrochloride]
Enhanced Activity in E. coli (fold enhancement of antibiotic activity / EPI concentration) ([2]; EPI at 50 (μg)): 256×/50

Cn1c(C(=O)NC[C@@H](N)CCCN)nc2cc(-c3ccc(F)cc3)cc(C(F)(F)F)c21 [Example 4, (S)—N-(2,5-diaminopentyl)-5-(4-fluorophenyl)-1-methyl-7-(trifluoromethyl)-1H-benzo[d]imidazole-2-carboxamide Dihydrochloride]
Enhanced Activity in E. coli (fold enhancement of antibiotic activity / EPI concentration) ([2]; EPI at 50 (μg)): 512×/50
Enhanced Activity in P. aeruginosa (fold enhancement of antibiotic activity / EPI concentration) ([1]; EPI at 12.5 (μg)): 8×/12.5

NCCC[C@H](N)CNC(=O)c1nc2cc(-c3ccc(F)cc3)cc(-c3ccc(F)cc3)c2[nH]1 [Example 2, (S)—N-(2,5-diaminopentyl)-5,7-bis(4-fluorophenyl)-1H-benzo[d]imidazole-2-carboxamide Dihydrochloride]
Enhanced Activity in P. aeruginosa (fold enhancement of antibiotic activity / EPI concentration) ([1]; EPI at 12.5 (μg)): 1×/12.5

NCCC[C@@H](N)CNC(=O)c1nc2cc(-c3ccc(F)cc3)ccc2[nH]1 [Example 18, (R)—N-(2,5-diaminopentyl)-5-(4-fluorophenyl)-1H-benzo[d]imidazole-2-carboxamide Dihydrochloride]
Enhanced Activity in E. coli (fold enhancement of antibiotic activity / EPI concentration) ([2]; EPI at 6.25 (μg)): 2×/6.25

COc1ccc(-c2ccc3nc(C(=O)NC[C@@H](N)CCN)[nH]c3c2)cc1.Cl.Cl [Example 15, (S)-4-(5-(4-methoxyphenyl)-1H-benzo[d]imidazole-2-carboxamido)butane-1,3-diaminium Dihydrochloride]
Enhanced Activity in E. coli (fold enhancement of antibiotic activity / EPI concentration) ([2]; EPI at 50 (μg)): 2×/50
Enhanced Activity in P. aeruginosa (fold enhancement of antibiotic activity / EPI concentration) ([1]; EPI at 12.5 (μg)): 2×/12.5
